Tests used:
V. vulgaris [1] = assay: Field trapping Experiment 2, DMNT dose-response with W•H•Y top attractants; type: in vivo, Vespula vulgaris; details: Exp 2, DMNT added to WHY top attractant
Description: (§1) Three field trapping experiments were carried out during late July to early August 2009, in residential and woody areas around Spokane, Wash., USA, using the newly marketed Rescue® W•H•Y traps (www.rescue.com). As used herein, the W•H•Y trap is a trap in accordance with the description of United States Patent Application Publication No. 2009/0151228. The W•H•Y trap has a top chamber and a bottom chamber. The top chamber is baited with two attractants—one of which is a solid contained in a vial (2-methyl-1-butanol) and the other a liquid mixed with water (acetic acid), herein referred to as the W•H•Y top attractant. The bottom chamber is baited with a liquid attractant (heptyl butyrate) poured onto a cotton pad, herein referred to as the W•H•Y bottom attractant. Separation of the top and bottom attractants (otherwise antagonistic to each other when released from the same chamber) in two chambers was a design feature of this trap and creates two focal attraction sources from one trap for different species of wasps, hornets, and yellowjackets. Traps were hung 1.5-2.0 m above the ground on either the fence or tree branches ca. 5 m apart within each trap line. For each trapping experiment, six sets of traps were deployed with their initial trap positions within each set being randomized. To minimize positional effects and obtain more replications, wasp collections and trap re-randomization were carried out when ≧10-20 wasps were caught in the best trap. Each replicate lasted several days depending on wasp flight activity. Captured wasps were removed from the traps and kept in the zip-bags before taking back to the laboratory for recording of the species, gender status, and catch.
(§2) Experiment 3 (Aug. 5-13, 2009) was conducted to determine the potential behavioral activity of different doses of (E)-4,8-dimethyl-1,3,7-nonatriene alone. The individual (or different doses) HIPVs were loaded into either polyethylene bags or centrifuge tube type of dispensers, and released from the top of the W•H•Y trap chamber. W•H•Y trap attractants (both top and bottom or top only) alone and water (top chamber only) were included in the test as positive and blank controls, respectively. The dispenser types, loading and release rates of the tested semiochemicals are described in Tables 1, 2 and 3.
(§3) Trap catch data were converted to proportion (P) of total captured wasps within each replicate. Data were then transformed by arcsin√P to meet the assumptions of normality and homogeneity of variances for ANOVA. Means were compared by ANOVA followed by the Ryan-Einot-Gabriel-Welsh (REGW) multiple Q test (SPSS 16.0 for Windows) at α=0.05.

V. atropilosa = assay: as above; type: in vivo, Vespula atropilosa; details: Exp 2, DMNT added to WHY top attractant
Description: as §1, §2, §3

P. dominulus [2] = assay: as above; type: in vivo, Polistes dominulus; details: Exp 2, DMNT added to WHY top attractant
Description: as §1, §2, §3

P. aurifer = assay: as above; type: in vivo, Polistes aurifer; details: Exp 2, DMNT added to WHY top attractant
Description: as §1, §2, §3

V. pensylvanica = assay: Field trapping Experiment 3, different doses of DMNT alone; type: in vivo, Vespula pensylvanica
Description: as §1, §2, §3

V. vulgaris [3] = assay: as above; type: in vivo, Vespula vulgaris
Description: as §1, §2, §3

V. acadica = assay: as above; type: in vivo, Vespula acadica
Description: as §1, §2, §3

V. germanica = assay: as above; type: in vivo, Vespula germanica
Description: as §1, §2, §3

D. arenaria = assay: as above; type: in vivo, Dolichovespula arenaria
Description: as §1
Experiment 1 (Jul. 22-30, 2009) tested ten synthetic HIPV candidates [(E)-2-hexenal, (Z)-3-hexen-1-ol, (Z)-3-hexenyl acetate, cis-ocimene, linalool, methyl salicylate, geranyl acetate, trans-β-caryophyllene, trans-β-farnesene and (E)-4,8-dimethyl-1,3,7-nonatriene], including several paper wasp EAD-active compounds (see FIG. 2 for details), to determine their potential synergistic effect on the Rescue® W•H•Y trap attractants to paper wasps, yellowjackets, and hornets. Experiment 2 (Aug. 5-13, 2009) tested behavioral responses of the paper wasps and yellowjackets to the Rescue® W•H•Y trap attractants (top attractants only) and its combination with (E)-4,8-dimethyl-1,3,7-nonatriene, one of the EAD-active and behaviorally significant HIPVs, in a dose-response fashion. Experiment 3 (Aug. 5-13, 2009) was conducted to determine the potential behavioral activity of different doses of (E)-4,8-dimethyl-1,3,7-nonatriene alone. The individual (or different doses) HIPVs were loaded into either polyethylene bags or centrifuge tube type of dispensers, and released from the top of the W•H•Y trap chamber. W•H•Y trap attractants (both top and bottom or top only) alone and water (top chamber only) were included in the test as positive and blank controls, respectively. The dispenser types, loading and release rates of the tested semiochemicals are described in Tables 1, 2 and 3.
as §3

P. dominulus [4] = assay: as above; type: in vivo, Polistes dominulus
Description: as §1, §2, §3

paper wasps = assay: Field trapping Experiment 1, top chamber catches; type: in vivo, P. dominulus and P. aurifer; details: Exp 1; HIPV combined with W•H•Y attractant (acetic acid and 2-methyl-1-butanol) in the top chamber
Description: as §1, with “To minimize positional effects and obtain more replications, wasp collections and trap re-randomization were carried out when ≧10-20 wasps were caught in the best trap. Each replicate lasted several days depending on wasp flight activity. Captured wasps were removed from the traps and kept in the zip-bags before taking back to the laboratory for recording of the species, gender status, and catch.” left out

[5] = test system: paper wasps, yellowjackets, or hornets; assay: Field trapping Experiment 3, DMNT alone; type: in vivo; details: Exp 3, different doses alone, without any W•H•Y attractants
Description: as §1, with “To minimize positional effects and obtain more replications, wasp collections and trap re-randomization were carried out when ≧10-20 wasps were caught in the best trap. Each replicate lasted several days depending on wasp flight activity. Captured wasps were removed from the traps and kept in the zip-bags before taking back to the laboratory for recording of the species, gender status, and catch.” left out

[6] = release rate 0.25, hole 0.5 mm, loading 15 μL
[7] = release rate 0.5, hole 1 mm, loading 30 μL
[8] = release rate 1, hole 2 mm, loading 75 μL
[9] = release rate 1.5, hole 3 mm, loading 175 μL
[10] = release rate 2, hole 5.5 mm, loading 325 μL
[11] = Exp 3, release rate 0.25, hole 0.5 mm, loading 15 μL
[12] = Exp 3, release rate 0.5, hole 1 mm, loading 30 μL
[13] = Exp 3, release rate 1, hole 2 mm, loading 75 μL
[14] = Exp 3, release rate 1.5, hole 3 mm, loading 175 μL
[15] = Exp 3, release rate 2, hole 5.5 mm, loading 325 μL

SMILES: C=C/C=C(\C)CCC=C(C)C [(E)-4,8-dimethyl-1,3,7-nonatriene]
- Total Yellowjackets Caught V. vulgaris (V. vulgaris [1]; [6]): 8
- Total Yellowjackets Caught V. vulgaris (V. vulgaris [1]; [7]): 8
- Total Yellowjackets Caught V. vulgaris (V. vulgaris [1]; [8]): 5
- Total Yellowjackets Caught V. vulgaris (V. vulgaris [1]; [9]): 5
- Total Yellowjackets Caught V. vulgaris (V. vulgaris [1]; [10]): 1
- Total Yellowjackets Caught V. atropilosa (V. atropilosa; [6]): 0
- Total Yellowjackets Caught V. atropilosa (V. atropilosa; [7]): 0
- Total Yellowjackets Caught V. atropilosa (V. atropilosa; [8]): 0
- Total Yellowjackets Caught V. atropilosa (V. atropilosa; [9]): 0
- Total Yellowjackets Caught V. atropilosa (V. atropilosa; [10]): 1
- Total Paper Wasps Caught P. dominulus (P. dominulus [2]; [6]): 7
- Total Paper Wasps Caught P. dominulus (P. dominulus [2]; [7]): 2
- Total Paper Wasps Caught P. dominulus (P. dominulus [2]; [8]): 13
- Total Paper Wasps Caught P. dominulus (P. dominulus [2]; [9]): 8
- Total Paper Wasps Caught P. dominulus (P. dominulus [2]; [10]): 5
- Total Paper Wasps Caught P. aurifer (P. aurifer; [6]): 0
- Total Paper Wasps Caught P. aurifer (P. aurifer; [7]): 0
- Total Paper Wasps Caught P. aurifer (P. aurifer; [8]): 0
- Total Paper Wasps Caught P. aurifer (P. aurifer; [9]): 0
- Total Paper Wasps Caught P. aurifer (P. aurifer; [10]): 0
- Total Yellowjackets Caught V. pensylvanica (V. pensylvanica; [11]): 43
- Total Yellowjackets Caught V. pensylvanica (V. pensylvanica; [12]): 12
- Total Yellowjackets Caught V. pensylvanica (V. pensylvanica; [13]): 34
- Total Yellowjackets Caught V. pensylvanica (V. pensylvanica; [14]): 24
- Total Yellowjackets Caught V. pensylvanica (V. pensylvanica; [15]): 24
- Total Yellowjackets Caught V. vulgaris (V. vulgaris [3]; [11]): 4
- Total Yellowjackets Caught V. vulgaris (V. vulgaris [3]; [12]): 6
- Total Yellowjackets Caught V. vulgaris (V. vulgaris [3]; [13]): 4
- Total Yellowjackets Caught V. vulgaris (V. vulgaris [3]; [14]): 2
- Total Yellowjackets Caught V. vulgaris (V. vulgaris [3]; [15]): 5
- Total Yellowjackets Caught V. acadica (V. acadica; [11]): 0
- Total Yellowjackets Caught V. acadica (V. acadica; [12]): 0
- Total Yellowjackets Caught V. acadica (V. acadica; [13]): 0
- Total Yellowjackets Caught V. acadica (V. acadica; [14]): 0
- Total Yellowjackets Caught V. acadica (V. acadica; [15]): 0
- Total Yellowjackets Caught V. germanica (V. germanica; [11]): 0
- Total Yellowjackets Caught V. germanica (V. germanica; [12]): 0
- Total Yellowjackets Caught V. germanica (V. germanica; [13]): 0
- Total Yellowjackets Caught V. germanica (V. germanica; [14]): 0
- Total Yellowjackets Caught V. germanica (V. germanica; [15]): 0
- Total Yellowjackets Caught D. arenaria (D. arenaria; [11]): 0
- Total Yellowjackets Caught D. arenaria (D. arenaria; [12]): 0
- Total Yellowjackets Caught D. arenaria (D. arenaria; [13]): 0
- Total Yellowjackets Caught D. arenaria (D. arenaria; [14]): 0
- Total Yellowjackets Caught D. arenaria (D. arenaria; [15]): 0
- Total Paper Wasps Caught P. dominulus (P. dominulus [4]; [11]): 7
- Total Paper Wasps Caught P. dominulus (P. dominulus [4]; [12]): 6
- Total Paper Wasps Caught P. dominulus (P. dominulus [4]; [13]): 4
- Total Paper Wasps Caught P. dominulus (P. dominulus [4]; [14]): 17
- Total Paper Wasps Caught P. dominulus (P. dominulus [4]; [15]): 10
- effect on trap catches of paper wasps in the top chambers (paper wasps): significantly increased
- attraction alone versus water blank control traps [5]: not different
- attraction alone versus water blank control traps ([5]; listed as DMNT): not significantly attractive

— US20110165115A1, “SYNERGISTIC ATTRACTANTS FOR PESTIFEROUS SOCIAL INSECTS” (STERLING INTERNATIONAL INC., priority 2010, published 2011)
